According to patent US7368582B2, “Amidomethyl-substituted 2-(4-sulfonylamino)-3-hydroxy-3,4-dihydro-2H-chromen-6-yl compounds, a process and intermediates for their production, and pharmaceutical compositions containing them” (Solvay Pharmaceuticals GmbH, priority 2003, dated 2008):

What was measured:
[1] = tested on: left atrium of rats' hearts; experiment: Functional refractory period prolongation on isolated left atria of rats' hearts in vitro; set-up: species or system rat (Sprague-Dawley); conditions: 10 μM
Method: 3. Investigation of the Functional Effectiveness of the Substances on the Atrium of Rats' Hearts in Vitro
In this test model it is determined to what extent the Kv 1.5-blocking substances of Formula I result in a prolongation of the functional refractory period in the left atrium of rats. The refractory period is the minimum possible elapsed time between the basic stimulus and additional stimulus in which a renewed contraction can be triggered. The extent of the prolongation of the functional refractory period is a measurement of the antiarrhythmic effectiveness of the substances according to the invention. The functional refractory period is determined by testing on the electrically stimulated preparation at what elapsed time from the preceding contraction a renewed contraction can be triggered by additional electrical stimuli.
The hearts were removed from freshly sacrificed rats (Sprague-Dawley, Charles-River, Germany). The left atria were isolated and fastened to force transducers in a temperature-controlled (30° C.), gasified (O2 95%, CO2 5%) organ bath which was filled with modified Tyrode solution (all values in mM: NaCl 137; KCl 2.7; CaCl2 1.8; MgCl2 0.8; NaHCO3 11.9; NaH2PO4 0.6; glucose 5). In order to trigger regular contractions, the preparations were electrically stimulated (rectangular pulses, pulse magnitude 3.5× threshold stimulus, pulse width 1.5 ms, frequency 1 Hz). Initially, the initial value of the functional refractory period was determined by applying extra pulses in addition to the basic stimulus, the elapsed time from the preceding basic stimulus being shortened until no further additional contraction could be triggered. Then the cumulative addition of increasing concentrations (0.1-10 μM) of the substances of Formula I took place at intervals of 20 min. each, the refractory period being determined again in each case 18 min. after the addition had taken place. Before the measurement, stock solutions of the test substances (3.2 and 0.32 mM in 100% DMSO) were prepared. In order to achieve the desired final concentrations of the substances (0.1-10 μM) in the organ bath (volume 100 ml), corresponding volumes of these stock solutions were then poured into the organ bath.
In each case the prolongation of the functional refractory period (FRP) in the left atrium of the rats' hearts in milliseconds observed after the addition of 10 μM of the respective substance of Formula I to the atrial preparations was given as characteristic variable.

Kv 1.3-potassium channel = target: T1, Kv 1.3-potassium channel (Homo sapiens, UniProt P22001); experiment: In-vitro Kv 1.3-potassium channel-blocking effect (membrane potential-sensitive fluorescent dye in transfected CHO cells); format: cell-based; conditions: 10 μM test substance; CHO cells transfected with Kv 1.3; relative to reference margatoxin
T1 construct: expressed in transfected cells; host or cells: CHO cells, stably transfected with the Kv 1.3 plasmid using DMRIE-C
T1 sequence (P22001 whole entry): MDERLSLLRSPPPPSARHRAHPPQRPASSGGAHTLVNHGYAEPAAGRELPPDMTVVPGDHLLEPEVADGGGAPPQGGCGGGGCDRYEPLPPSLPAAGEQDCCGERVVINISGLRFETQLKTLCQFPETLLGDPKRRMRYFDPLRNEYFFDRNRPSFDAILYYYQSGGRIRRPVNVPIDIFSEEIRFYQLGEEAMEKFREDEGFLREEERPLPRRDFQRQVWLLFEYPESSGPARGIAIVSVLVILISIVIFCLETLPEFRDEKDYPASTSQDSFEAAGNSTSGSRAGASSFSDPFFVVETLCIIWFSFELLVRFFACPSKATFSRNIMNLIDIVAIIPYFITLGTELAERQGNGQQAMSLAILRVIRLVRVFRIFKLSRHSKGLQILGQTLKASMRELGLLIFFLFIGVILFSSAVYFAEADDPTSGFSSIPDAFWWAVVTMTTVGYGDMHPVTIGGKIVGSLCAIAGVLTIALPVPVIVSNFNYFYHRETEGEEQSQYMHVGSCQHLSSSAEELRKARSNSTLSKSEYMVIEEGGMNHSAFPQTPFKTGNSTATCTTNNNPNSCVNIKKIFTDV
Description: 2. In-Vitro Investigation of the Kv 1.3-Potassium Channel-Blocking Effect of the Substances
In this test model, known oocytes of the Chinese hamster (═CHO) are used which are stably transfected with the Kv 1.3-potassium channel. The blockade of the cell-inherent Kv 1.3-potassium channel activity in the transfected cells is accompanied by a positive shift in the membrane potential from approx. −40 mV to −30 mV, whereas in the wild-type CHO cells investigated in parallel no significant shift in the membrane potential is triggered. A change in the membrane potential is thus connected to the reduction in the Kv 1.3-potassium channel activity. By blocking the Kv 1.3-potassium channels e.g. with substances of Formula I and the resulting change in the membrane potential, an accumulation of a membrane potential-sensitive fluorescent dye in intracellular compartments of the oocytes and ultimately increasing fluorescence occurs. The change in the membrane potential of the oocytes is therefore measured indirectly via the increase in fluorescence of the membrane potential-senstive dyes.
The cells were transfected with the Kv 1.3 plasmid in known manner with a commercially obtainable transfection reagent (DMRIE-C from Gibco BRL, Germany). The successful transfection was verified by immunofluorescence and by “patch-clamp” investigations of the potassium ion current. The fluorescence measurements were performed on a Tecan Safire fluorescence reader from Tecan, Germany. In each case, the increase in the fluorescent intensity caused by the blockade of the Kv 1.3-potassium channels in the oocytes with substances of Formula I in a concentration of 10 μM was determined as characteristic variable. The increase in the fluorescent intensity was given in each case in percent (%) compared with an increase in the fluorescent intensity caused by the reference substance margatoxin. Margatoxin is known as a selective Kv 1.3-potassium channel blocker (see e.g. M. Garcia-Calvo et al., J. Biol. Chem. 268 (1993) 18866-18874).

[2] = tested on: hearts of anaesthetised cats; experiment: Atrial and ventricular fibrillation threshold in anaesthetised cats in vivo; set-up: species or system cat; conditions: anaesthetized cats, dose 30 μmol/kg i.v.; for AFT (increase in the atrial fibrillation threshold) / VFT (increase in the ventricular fibrillation threshold): percent of value before administration
Description: 5. Investigation of the Functional Effectiveness of the Substances on the Hearts of Anaesthetised Cats in Vivo
In the test model shown below, it was shown that the substances according to the invention at most have a marked atrial-selective effect on the heart. After administration of the substances according to the invention, a significant increase in the atrial fibrillation threshold—i.e. the current intensity at which atrial fibrillation occurs—was observed. At the same time, on the other hand, the ventricular fibrillation threshold is influenced only minimally.
Living cats were anaesthetised with chloralose/urethane (50/300 mg/kg i.v.) and were ventilated with ambient air. Then, following thoracotomy, stimulating electrodes were attached to the right atrium and the ventricle. The atrial and ventricular fibrillation threshold was determined in known manner by administration of rectangular pulses of increasing current intensity until atrial or ventricular fibrillation occurred (for performance see in detail: Br. J. Pharmac. 17 (1961) 167; Hdb. exp. Pharmacol. XVI/3 (1975) 131; Pharmacol. Res. 25 Suppl. 2 (1992) 156). The test substances of Formula I were dissolved in propylene glycol (80%) and administered intravenously in increasing doses (5-30 μmol/kg). Atrial and ventricular fibrillation thresholds were then determined at 5-minute intervals in known manner after the addition of the respective dose. The increase in the respective fibrillation threshold due to the substances investigated was expressed in percent of the value before administration of substance, i.e. a doubling of the fibrillation threshold corresponds to an increase of 100%.

## CC1(C)Oc2ccc(CC(=O)NC3CCCc4ccccc43)cc2C(NS(=O)(=O)c2cccc(F)c2)C1O (mixture of isomers) [Example 13]
[1]
  FRP prolongation: 28 ms
Kv 1.3-potassium channel
  Increase in the fluorescent intensity (% margatoxin): 53 % margatoxin

## CCc1ccc(S(=O)(=O)N[C@@H]2c3cc(CC(=O)N[C@@H]4CCCc5ccccc54)ccc3OC(C)(C)[C@H]2O)cc1 [Example 2, 2-((3S,4R)-4-{[(4-ethylphenyl)sulfonyl]amino}-3-hydroxy-2,2-dimethyl-3,4-dihydro-2H-chromen-6-yl)-N-[(1R)-1,2,3,4-tetrahydronaphth-1-yl]acetamide]
[2]
  Selectivity factor (AFT:VFT): 17
  AFT (increase in the atrial fibrillation threshold): 261%
  VFT (increase in the ventricular fibrillation threshold): 15%
[1]
  FRP prolongation: 20 ms
Kv 1.3-potassium channel
  Increase in the fluorescent intensity (% margatoxin): 72 % margatoxin

## CCc1ccc(S(=O)(=O)N(CC(C)(C)C)C2c3cc(CC(=O)NCc4ccccc4)ccc3OC(C)(C)C2O)cc1 (stereo not drawn) [Example 4, N-benzyl-2-{4-[[(4-ethylphenyl)sulfonyl](neopentyl)amino]-3-hydroxy-2,2-dimethyl-3,4-dihydro-2H-chromen-6-yl}acetamide]
[2]
  Selectivity factor (AFT:VFT): 12
  AFT (increase in the atrial fibrillation threshold): 226%
  VFT (increase in the ventricular fibrillation threshold): 19%
[1]
  FRP prolongation: 17 ms

## CCc1ccc(S(=O)(=O)N(CC(C)(C)C)[C@@H]2c3cc(CC(=O)NCc4ccccc4)ccc3OC(C)(C)[C@H]2O)cc1 [Example 7]
[1]
  FRP prolongation: 24 ms

## CCc1ccc(S(=O)(=O)N(CC(C)(C)C)[C@H]2c3cc(CC(=O)NCc4ccccc4)ccc3OC(C)(C)[C@@H]2O)cc1 [Example 8]
[1]
  FRP prolongation: 17 ms

## CCc1ccc(S(=O)(=O)N[C@@H]2c3cc(CC(=O)N[C@H]4CCCc5ccccc54)ccc3OC(C)(C)[C@H]2O)cc1 [Example 9]
[2]
  Selectivity factor (AFT:VFT): 7
  AFT (increase in the atrial fibrillation threshold): 213%
  VFT (increase in the ventricular fibrillation threshold): 29%
[1]
  FRP prolongation: 30 ms
Kv 1.3-potassium channel
  Increase in the fluorescent intensity (% margatoxin): 107 % margatoxin

## CCc1ccc(S(=O)(=O)N(CC(C)(C)C)C2c3cc(CC(=O)NCCc4ccccc4)ccc3OC(C)(C)C2O)cc1 (stereo not drawn) [Example 10]
[2]
  Selectivity factor (AFT:VFT): 13
  AFT (increase in the atrial fibrillation threshold): 241%
  VFT (increase in the ventricular fibrillation threshold): 19%
[1]
  FRP prolongation: 20 ms
Kv 1.3-potassium channel
  Increase in the fluorescent intensity (% margatoxin): 82 % margatoxin

## CCc1ccc(S(=O)(=O)NC2c3cc(CC(=O)N4CCN(c5ccccc5)CC4)ccc3OC(C)(C)C2O)cc1 (stereo not drawn) [Example 16]
[1]
  FRP prolongation: 20 ms
